The test deals with human bronchial epithelial cells, CFTR corrector, plate reader. The experiment in a line: CFTR ΔF508 corrector activity in bronchial cells, dose response, human bronchial epithelial cells, plate reader, cherry-pick, two tests (AID 743267).
Where [1] appears, read: measured here: test 2 replicate run.

Broadly, the AC50 is the concentration giving half of the maximal activity seen. High values mean activity only at high concentration, low ones activity at low concentration. Take `COc1cc(/C=C/C(=O)c2ccc3c(c2)OCO3)cc(Cl)c1O`: the AC50 under setting [1] turned out to be 15.6 µM.
For the compound `COc1ccc2c(c1OC)OCC2C` (configuration not stated), under setting [1], the AC50 worked out at 30.2 µM.
Under setting [1], `O=S(=O)(Cc1ccc(Cl)cc1Cl)c1ccc(Cl)cc1` registered an AC50 of 2.72 µM.
On the same count and under the same terms, for `O=C1NC(=Nc2cccnc2)S/C1=C/c1ccc(F)cc1` the value was 9.27 µM; for `COc1ccc(-c2cc(NC=O)c3ncc(-c4ccc(OC)c(OC)c4)n3c2)cc1`, 22.3 µM.
With `COc1ccccc1C(=O)Nc1ccc2c(c1)nc(CCNC(=O)c1ccco1)n2C`, under setting [1], the AC50 was found to be 5.48 µM.
The same measure, in the same setting: the same measure for `CC(=NNC(=O)c1ccncc1)c1ccc2ccccc2c1O`: 7.94 µM; for `CCN(CC)c1ccc2c(cc1=O)[C@@H](NC)CCc1cc(OC)c(OC)c(OC)c1-2`: 1.31 µM; for `Cc1cccc(NS(=O)(=O)c2ccc(-c3cnc(C4CC4)o3)cc2)c1`: 1.59 µM.
Same read-out and setting: the same measure for `C#C[C@]1(O)CC[C@H]2[C@@H]3CCc4cc(OC5CCCC5)ccc4[C@H]3CC[C@@]21C`: 3.31 µM; for `c1ccc2nc(N3CCNCC3)ccc2c1`: greater than 50 µM.
Under setting [1], `COc1ccc2[nH]c(C(=O)N/N=C/c3ccc(O)cc3O)cc2c1` returned an AC50 of 4.83 µM.
`COc1ccc(S(=O)(=O)N(C(=O)C(C)C)c2ccc3oc(=O)sc3c2)cc1` gave a concentration at half-maximal activity (AC50) under setting [1] of 7.6 µM.
With `Cc1cccc(OCCNC(=O)c2ccc(Cl)c(S(=O)(=O)NCc3cccnc3)c2)c1`, under setting [1], the AC50 turned out to be 1.97 µM.
Under setting [1], `O=C1c2cccc3c([N+](=O)[O-])ccc(c23)C(=O)N1Cc1cccnc1` had an AC50 of 10.2 µM.
For the compound `Brc1ccc2c(c1)C(C1=NCCN1)c1ccccc1CS2` (configuration not stated), the AC50 under setting [1] came to 16 µM.
As to `CN(CCOc1ccc(Cl)cc1)C(=O)c1cccc(S(=O)(=O)N2CCN(c3ccccc3)CC2)c1`, the AC50 under setting [1] turned out to be 16 µM.
The same measure, in the same setting: for `CCOC(=O)c1cc2c(=Cc3ccc(N(C)C)cc3)c3ccccc3n2[n+]1C` the value was 5.09 µM.
For `Cc1cccc2c(N=Nc3ccc(S(=O)(=O)Nc4ccc(Cl)cc4)cc3[N+](=O)[O-])c(O)[nH]c12`, the AC50 under setting [1] is greater than 50 µM.
With `CC1(S(=O)(=O)O)CC(=O)c2ccccc2C1=O` (configuration not stated), the concentration at half-maximal activity (AC50) under setting [1] was determined as 28.6 µM.
For the compound `CC1=C/C(=C\C=C(C#N)C#N)N(C)c2ccccc21`, the AC50 under setting [1] amounted to 12.9 µM.
The compound `COc1ccc(C2c3ccc4ccccc4c3Oc3ncn(CCCO)c(=N)c32)cc1OC` (configuration not stated) showed a half-maximal activity concentration (AC50) under setting [1] of 25.5 µM.
The compound `Cc1cnc(NC(=O)CCc2ccccc2)s1` showed an AC50 under setting [1] of 6.6 µM.
Turning to `c1ccc2c(NCCCN3CCOCC3)c3ccccc3nc2c1`, the AC50 under setting [1] amounted to 3.51 µM.
Same read-out and setting: the same measure for `CCN(CC)c1ccc(/C=C(/C#N)c2nc3ccc(C)cc3[nH]2)c(OC(C)C)c1`: 9.34 µM.
Under setting [1], `COc1ccc(NS(=O)(=O)c2cc(NC(=O)Cc3c(F)cccc3Cl)ccc2OC)cc1` registered an AC50 of 0.827 µM.
Under setting [1], `Nc1ccc2ccc3cccc[n+]3c2c1` had an AC50 of 21.3 µM.
For the compound `O=C(CCC(=O)N1CCOc2ccc(Cl)cc21)N1CCN(c2ccccn2)CC1`, under setting [1], the AC50 was greater than 50 µM.
In turn, `COc1cccc(Nc2nc(-c3sc(NC(=O)c4ccccc4)nc3C)cs2)c1` displayed a half-maximal activity concentration (AC50) under setting [1] of 11.6 µM.
For the compound `CCSc1nnc(N2C(=O)C(O)=C(C(=O)c3ccco3)C2c2cccc(OC)c2)s1` (configuration not stated), under setting [1], the AC50 was greater than 50 µM.
Still for that read-out and setting: the same measure for `O=C(N/N=C/c1ccccc1OC(F)F)c1cc(-c2ccncc2)nc2ccccc12`: 0.798 µM; for `Cc1cc2c(cc1S(=O)(=O)Nc1ccc(F)cc1)n(C)c(=O)c(=O)n2C`: 43.2 µM.
The compound `C[C@H](CO)N1C[C@H](C)[C@H](CN(C)C(=O)NC2CCCCC2)Oc2cc(C#Cc3ccc(F)cc3)ccc2S1(=O)=O` had a concentration at half-maximal activity (AC50) (measured here: test 1 replicate run) of 7.62 µM.
Turning to `CN(C)S(=O)(=O)c1ccc2c(c1)/C(=C/c1cc3c([nH]1)CCCC3)C(=O)N2`, the half-maximal activity concentration (AC50) under setting [1] was 6.59 µM.
Under setting [1], `O=C1NC(=O)C(=Cc2ccc(N3CCOCC3)o2)C(=O)N1` showed an AC50 greater than 50 µM.
Under setting [1], `COc1ccc2c(c1)/C(=C/c1cc(OC)c(OC)c(OC)c1)C(=O)N2` showed a half-maximal activity concentration (AC50) of 2.04 µM.
Take `O=C(Nc1ccccc1)c1nc[nH]c1C(=O)Nc1ccccc1F`: the half-maximal activity concentration (AC50) under setting [1] worked out at 28.3 µM.

The values above are taken from PubChem BioAssay AID743267 (Broad Institute, 2014).
